Each structure is given as a SMILES string. Counter-ions that a name gives are not always drawn.

For the assay, the system named is IL-2. Briefly: Inhibition of IL-2 production (Jurkat cells activated with PHA, ELISA). The assay is classed as cell-based. The conditions noted are these: Homo sapiens, Jurkat, Jurkat/PHA/1% FBS; numeric values. The procedure:
Jurkat cells were placed in a 96 well plate (0.5 million cells per well in 1% FBS medium), and then a test compound of this invention was added at different concentrations. After 10 minutes, the cells were activated with PHA (final concentration 2.5 μg/mL) and incubated for 20 hours at 37° C. under 5% CO2. The final volume was 200 μL. Following incubation, the cells were centrifuged, and the supernatants collected and stored at −70° C. prior to assaying for IL-2 production. A commercial ELISA kit (IL-2 Eli-pair, Diaclone Research, Besancon, France) was used to detect production of IL-2, from which dose response curves were obtained. The IC50 value was calculated as the concentration at which 50% of maximum IL-2 production after stimulation was inhibited versus a non-stimulation control.
On the technique in general: ELISA stands for enzyme-linked immunosorbent assay.
Usually IC50 stands for the concentration that inhibits the measured activity by half. Low values mean higher potency, high ones lower potency. As for `CC1=C(c2cnc(NC(=O)c3cccc(F)c3C)cn2)CN(c2ncccc2F)CC1` [Compound 42, 3-fluoro-N-(5-(1-(3-fluoropyridin-2-yl)-4-methyl-1,2,5,6-tetrahydropyridin-3-yl)pyrazin-2-yl)-2-methylbenzamide], the midpoint of inhibition, the IC50, lay at 0.028 µM.

Regarding `CC1=C(c2ccc(NC(=O)c3c(F)cc(F)cc3F)cc2)CN(c2ncccc2C#N)CC1` [Compound 43, N-(4-(1-(3-cyanopyridin-2-yl)-4-methyl-1,2,5,6-tetrahydropyridin-3-yl)phenyl)-2,4,6-trifluorobenzamide], 0.031 µM corresponded to half-maximal inhibition (IC50). In the case of `CC1=C(c2cnc(NC(=O)c3c(F)cc(Br)cc3F)cn2)CN(c2ncccc2F)CC1` [Compound 44, 4-bromo-2,6-difluoro-N-(5-(1-(3-fluoropyridin-2-yl)-4-methyl-1,2,5,6-tetrahydropyridin-3-yl)pyrazin-2-yl) benzamide], half-maximal inhibition (IC50) was put at 0.031 µM. `CC1=C(c2ccc(NC(=O)c3c(C)cccc3F)cc2)CN(c2nnn(C)n2)CC1` [Compound 45, 2-fluoro-6-methyl-N-(4-(4-methyl-1-(2-methyl-2H-tetrazol-5-yl)-1,2,5,6-tetrahydropyridin-3-yl)phenyl) benzamide] gave an IC50 of 0.033 µM. `COc1cccc(F)c1C(=O)Nc1cnc(C2=C(C)CCN(c3ncccc3F)C2)cn1` [Compound 46, 2-fluoro-N-(5-(1-(3-fluoropyridin-2-yl)-4-methyl-1,2,5,6-tetrahydropyridin-3-yl)pyrazin-2-yl)-6-methoxybenzamide] showed an IC50 of 0.035 µM. `CCc1cnc(N2CCC(C)=C(c3cnc(NC(=O)c4c(F)cccc4F)cn3)C2)s1` [Compound 47, N-(5-(1-(5-ethylthiazol-2-yl)-4-methyl-1,2,5,6-tetrahydropyridin-3-yl)pyrazin-2-yl)-2,6-difluorobenzamide hydrochloride] registered a 50% inhibitory concentration (IC50) of 0.035 µM. In turn, `CC1=C(c2cnc(NC(=O)c3c(F)cccc3Cl)cn2)CN(c2ncc(C)s2)CC1` [Compound 48, 2-chloro-6-fluoro-N-(5-(4-methyl-1-(5-methylthiazol-2-yl)-1,2,5,6-tetrahydropyridin-3-yl)pyrazin-2-yl)benzamide] came in with an IC50 of 0.036 µM. In turn, `CC1=C(c2cnc(NC(=O)c3cccc(F)c3Cl)cn2)CN(c2ncccc2F)CC1` [Compound 49, 2-chloro-3-fluoro-N-(5-(1-(3-fluoropyridin-2-yl)-4-methyl-1,2,5,6-tetrahydropyridin-3-yl)pyrazin-2-yl)benzamide] had an IC50 of 0.036 µM.

`CC1=C(c2cnc(NC(=O)c3c(C)cccc3F)cn2)CN(c2ncc(C)s2)CC1` [Compound 50, 2-fluoro-6-methyl-N-(5-(4-methyl-1-(5-methylthiazol-2-yl)-1,2,5,6-tetrahydropyridin-3-yl)pyrazin-2-yl)benzamide] displayed an IC50 of 0.037 µM. Turning to `CC1=C(c2ccc(NC(=O)c3c(Cl)cncc3Cl)cc2)CN(c2ccccn2)CC1` [Compound 51, 3,5-dichloro-N-(4-(4-methyl-1-(pyridin-2-yl)-1,2,5,6-tetrahydropyridin-3-yl)phenyl)isonicotinamide], 0.037 µM corresponded to half-maximal inhibition (IC50). Molecule `CC1=C(c2cnc(NC(=O)c3cccc(F)c3C)cn2)CN(c2ncc(C)s2)CC1` [Compound 52, 3-fluoro-2-methyl-N-(5-(4-methyl-1-(5-methylthiazol-2-yl)-1,2,5,6-tetrahydropyridin-3-yl)pyrazin-2-yl)benzamide hydrochloride] came in with an IC50 of 0.04 µM. `CC1=C(c2ccc(NC(=O)c3cc(F)ccc3C)nc2)CN(c2nnn(C)n2)CC1` [Compound 53, 5-fluoro-2-methyl-N-(5-(4-methyl-1-(2-methyl-2H-tetrazol-5-yl)-1,2,5,6-tetrahydropyridin-3-yl)pyridin-2-yl) benzamide] showed an IC50 of 0.04 µM.

`CC1=C(c2ccc(NC(=O)c3c(F)cccc3F)cc2)CN(c2nc(Cl)cs2)CC1` [Compound 54, N-(4-(1-(4-chlorothiazol-2-yl)-4-methyl-1,2,5,6-tetrahydropyridin-3-yl)phenyl)-2,6-difluorobenzamide] came in with an IC50 of 0.04 µM. The molecule `CC1=C(c2ccc(NC(=O)c3c(Cl)cncc3Cl)cc2)CN(c2ncccc2F)CC1` [Compound 55, 3,5-dichloro-N-(4-(1-(3-fluoropyridin-2-yl)-4-methyl-1,2,5,6-tetrahydropyridin-3-yl)phenyl)isonicotinamide] yielded an IC50 of 0.041 µM. Regarding `Cn1nnc(N2CCC(Cl)=C(c3ccc(NC(=O)c4c(F)cccc4Cl)cc3)C2)n1` [Compound 56, 2-chloro-N-(4-(4-chloro-1-(2-methyl-2H-tetrazol-5-yl)-1,2,5,6-tetrahydropyridin-3-yl)phenyl)-6-fluorobenzamide], 0.041 µM corresponded to half-maximal inhibition (IC50). For `CC1=C(c2ccc(NC(=O)c3c(C)cccc3Cl)cc2)CN(c2nnn(C)n2)CC1` [Compound 57, 2-chloro-6-methyl-N-(4-(4-methyl-1-(2-methyl-2H-tetrazol-5-yl)-1,2,5,6-tetrahydropyridin-3-yl)phenyl) benzamide], inhibition was half-maximal at 0.041 µM (IC50). `CC1=C(c2ccc(NC(=O)c3c(F)cccc3F)cc2)CN(c2cnccn2)CC1` [Compound 58, 2,6-difluoro-N-(4-(4-methyl-1-(pyrazin-2-yl)-1,2,5,6-tetrahydropyridin-3-yl)phenyl)benzamide] gave an IC50 of 0.044 µM. Then `CC1=C(c2cnc(NC(=O)c3c(F)cccc3F)cn2)CN(c2nc(-c3cccnc3)cs2)CC1` [Compound 59, 2,6-difluoro-N-(5-(4-methyl-1-(4-(pyridin-3-yl)thiazol-2-yl)-1,2,5,6-tetrahydropyridin-3-yl)pyrazin-2-yl)benzamide], with 0.044 µM.

In turn, `COc1cc(F)c(C(=O)Nc2cnc(C3=C(C)CCN(c4ncccc4F)C3)cn2)c(F)c1` [Compound 60, 2,6-difluoro-N-(5-(1-(3-fluoropyridin-2-yl)-4-methyl-1,2,5,6-tetrahydropyridin-3-yl)pyrazin-2-yl)-4-methoxybenzamide] returned an IC50 of 0.046 µM.

`C=CCOC(=O)N1CCC(C)=C(c2ccc(NC(=O)c3c(F)cccc3F)cc2)C1` [Compound 61, allyl 3-(4-(2,6-difluorobenzamido)phenyl)-4-methyl-5,6-dihydropyridine-1(2H)-carboxylate] showed an IC50 of 0.046 µM.

Molecule `Cn1nnc(N2CCC(Cl)=C(c3cnc(NC(=O)c4cc(F)ccc4Cl)cn3)C2)n1` [Compound 62, 2-chloro-N-(5-(4-chloro-1-(2-methyl-2H-tetrazol-5-yl)-1,2,5,6-tetrahydropyridin-3-yl)pyrazin-2-yl)-5-fluorobenzamide] gave an IC50 of 0.049 µM.

For the molecule `CC1=C(c2cnc(NC(=O)c3ccc(F)cc3Cl)cn2)CN(c2ncccc2F)CC1` [Compound 63, 2-chloro-4-fluoro-N-(5-(1-(3-fluoropyridin-2-yl)-4-methyl-1,2,5,6-tetrahydropyridin-3-yl)pyrazin-2-yl) benzamide], the midpoint of inhibition, the IC50, lay at 0.049 µM. As to `CC1=C(c2ccc(NC(=O)c3c(F)cccc3F)cc2)CN(S(=O)(=O)N(C)C)CC1` [Compound 64, N-(4-(1-(N,N-dimethylsulfamoyl)-4-methyl-1,2,5,6-tetrahydropyridin-3-yl)phenyl)-2,6-difluorobenzamide], inhibition was half-maximal at 0.049 µM (IC50).

For the origin of these results see US20120183579A1, “COMPOUNDS FOR INFLAMMATION AND IMMUNE-RELATED USES” (Synta Pharmaceuticals Corp., priority 2008, published 2012).
